{
  "source": "paper PMC12675575",
  "about": "“A BRET biosensor for measuring uncompetitive engagement of PRMT5 complexes in cells” (Nature Communications, 2025)",
  "key": {"[1]": {"target": "T1, NLuc-PRMT5 co-expressed with WDR77 in HCT116 MTAP wild-type cells (Homo sapiens, UniProt O14744)", "T1 construct": "Horizon Discovery (cells) #PAR-034 and #R02-033 (cells); host or cells: HCT116 MTAP wild-type / MTAP-/-", "T1 sequence (O14744 whole entry)": "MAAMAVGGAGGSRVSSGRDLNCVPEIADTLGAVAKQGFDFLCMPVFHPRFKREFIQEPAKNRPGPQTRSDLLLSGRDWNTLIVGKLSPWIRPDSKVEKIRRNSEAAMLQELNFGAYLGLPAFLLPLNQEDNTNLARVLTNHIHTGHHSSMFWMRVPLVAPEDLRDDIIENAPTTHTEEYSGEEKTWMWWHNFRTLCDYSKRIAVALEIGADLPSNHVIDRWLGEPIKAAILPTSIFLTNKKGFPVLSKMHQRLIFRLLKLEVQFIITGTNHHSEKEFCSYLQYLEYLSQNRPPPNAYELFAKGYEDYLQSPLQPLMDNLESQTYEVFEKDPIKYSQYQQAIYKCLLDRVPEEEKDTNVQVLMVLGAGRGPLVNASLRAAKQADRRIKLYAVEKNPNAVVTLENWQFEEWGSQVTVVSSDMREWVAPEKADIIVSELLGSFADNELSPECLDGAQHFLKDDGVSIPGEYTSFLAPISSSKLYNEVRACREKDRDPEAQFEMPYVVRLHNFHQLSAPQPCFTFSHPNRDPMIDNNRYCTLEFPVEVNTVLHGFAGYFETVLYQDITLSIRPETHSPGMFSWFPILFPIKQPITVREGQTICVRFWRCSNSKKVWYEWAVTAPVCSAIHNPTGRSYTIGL", "T1 sequence (Q9BQA1 whole entry partner)": "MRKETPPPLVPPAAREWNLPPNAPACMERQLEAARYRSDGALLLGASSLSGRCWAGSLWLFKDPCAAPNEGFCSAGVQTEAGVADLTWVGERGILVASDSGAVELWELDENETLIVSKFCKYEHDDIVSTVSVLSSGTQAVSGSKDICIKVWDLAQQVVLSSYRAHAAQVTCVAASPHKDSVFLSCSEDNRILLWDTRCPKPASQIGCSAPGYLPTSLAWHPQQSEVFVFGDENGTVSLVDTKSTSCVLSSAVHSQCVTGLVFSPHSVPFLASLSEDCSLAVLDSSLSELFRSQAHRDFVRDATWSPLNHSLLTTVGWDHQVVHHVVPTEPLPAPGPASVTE", "test": "Live-cell NanoBRET target engagement in HCT116 MTAP wild-type cells (NLuc-PRMT5 + WDR77)", "assay_type": "cell-based", "conditions": "for BRET, CBH-002 + DMSO: Fig 5A, Log([CBH-002]); for normalized BRET, CBH-002 + DMSO (Figure S6C) / normalized BRET, CBH-002 + GSK3326595 (Figure S6C): log([CBH-002])", "procedure": "HEK293 cells (ATCC) were cultured in DMEM (Thermo Fisher) + 10% (v/v) FBS (Seredigm), and HCT116 cells (Horizon Discovery, #PAR-034 and #R02-033) were cultured in McCoy’s 5A (Thermo Fisher) + 10% FBS, with incubation in a humidified, 37 °C/5% CO2 incubator. Cells were split 1–3 days prior to performing experiments and used at roughly 80% confluency. […] Cells were transfected according to the manufacturer’s protocol using FuGENE HD (Promega). NanoLuc fusion DNA was diluted into Transfection Carrier DNA (Promega) in Opti-MEM at a ratio of 1:9 (mass/mass), and FuGENE HD was added at a ratio of 1:3 (μg DNA:μL lipid). […] Formed complexes were combined with cells resuspended to a density of 2 × 10^5 cells/mL in Opti-MEM + 1% FBS at a ratio of 1:20 (vol:vol). […] Cells were seeded at a density of 2 × 10^5 cells/mL in Opti-MEM + 1% FBS in 100 μL (96-well). The BRET probe CBH-002 was prepared first as a 100× stock in 100% DMSO (Sigma) and then diluted to a 20× stock in NanoBRET Tracer Dilution buffer (Promega). Test compounds were prepared as 1000× stocks in 100% DMSO and diluted to 10× stocks in Opti-MEM to prepare working stocks. […] NanoBRET Complete 3x Substrate was prepared by combining Nano-Glo Substrate and Extracellular NanoLuc Inhibitor in Opti-MEM, according to the manufacturer’s protocol (Promega).\nEC50 values were obtained by fitting the BRET probe and compound affinity curves to a sigmoidal four-parameter fit model in Graphpad Prism:1 Y=Ymin+Ymax−Ymin/1+10^LogEC50−Xh where h is the Hill Slope.\nWhen normalized BRET was used, mBRET values were normalized using2 NormalizedBRET%=(Y−BRETmin)/BRETmax−BRETmin where y = mBRET in the presence of test compound and BRET probe, BRETmin = mBRET at the highest concentration (saturating) of test compound and BRET probe, and BRETmax = mBRET in the presence of vehicle (DMSO) and BRET probe.\nNormalized concentration-response curves showing full competition were fit using a 2-parameter model:3 Y=100/1+10^LogEC50−Xh\nIn situations where only partial competition was observed, the normalized concentration-response curves were fit using Eq. 1 and where Ymin was constrained to >0."}, "NLuc-PRMT5": {"target": "NLuc-PRMT5 (Homo sapiens, UniProt O14744)", "sequence (O14744 whole entry)": "as the sequence (O14744 whole entry) above", "sequence (Q9BQA1 whole entry partner)": "as the sequence (Q9BQA1 whole entry partner) above", "test": "BRET probe CBH-002 binding kinetics (association, dissociation by GSK3326595) in live HEK293 cells", "assay_type": "cell-based", "set-up": "host or cells: HEK293 (live cells; digitonin lysate for the SAM titration); Tracer association (Figure S3C): unit not given here", "procedure": "To determine BRET probe binding kinetics, live HEK293 cells were treated with 30 nM CBH-002 and BRET measurements were read in 3 min intervals for 2 h at room temperature."}},
  "note": "“And” between values parts separate entries of the source, which are not always exact repeats. Equal entries are not always repeated.",
  "data": [
    {"molecule": "O=C(CCc1ccc2n1[B-](F)(F)[N+]1=C(c3ccc[nH]3)C=CC1=C2)NCCCCC(=O)N1CCC(Nc2cc(C(=O)NC[C@H](O)CN3CCc4ccccc4C3)ncn2)CC1", "note": "[CBH-002]", "values": [
      {"measurement": "BRET, CBH-002 + DMSO", "setting": "[1]; uM -0.60", "value": "403 and 799.01 and 758.47"},
      {"measurement": "BRET, CBH-002 + DMSO", "setting": "[1]; uM -0.90", "value": "393 and 766.11 and 738.99"},
      {"measurement": "BRET, CBH-002 + DMSO", "setting": "[1]; uM -1.20", "value": "378 and 710.21 and 697.93"},
      {"measurement": "BRET, CBH-002 + DMSO", "setting": "[1]; uM -1.51", "value": "362 and 618.54 and 616.68"},
      {"measurement": "BRET, CBH-002 + DMSO", "setting": "[1]; uM -1.81", "value": 323},
      {"measurement": "BRET, CBH-002 + DMSO", "setting": "[1]; uM -2.71", "value": "68.8 and 69.23 and 65.71"},
      {"measurement": "EC50", "setting": "[1]; HCT116 wild-type cells, WDR77 co-expression, read-out: CBH-002 apparent affinity (EC50)", "value": 12, "unit": "nM"},
      {"measurement": "normalized BRET, CBH-002 + DMSO (Figure S6C)", "setting": "[1]; uM = -0.60", "value": 100},
      {"measurement": "normalized BRET, CBH-002 + GSK3326595 (Figure S6C)", "setting": "[1]; uM = -0.60", "value": "12.6717 and 16.8431 and 16.7636"},
      {"measurement": "normalized BRET, CBH-002 + DMSO (Figure S6C)", "setting": "[1]; uM = -0.90", "value": "97.4927 and 95.8339 and 97.4011"},
      {"measurement": "normalized BRET, CBH-002 + GSK3326595 (Figure S6C)", "setting": "[1]; uM = -0.90", "value": "9.237 and 13.3988 and 13.2855"},
      {"measurement": "normalized BRET, CBH-002 + DMSO (Figure S6C)", "setting": "[1]; uM = -1.20", "value": "93.7318 and 88.7552 and 91.9231"},
      {"measurement": "normalized BRET, CBH-002 + GSK3326595 (Figure S6C)", "setting": "[1]; uM = -1.20", "value": "5.8269 and 8.083 and 8.045"},
      {"measurement": "normalized BRET, CBH-002 + DMSO (Figure S6C)", "setting": "[1]; uM = -1.51", "value": "89.7202 and 77.147 and 81.0831"},
      {"measurement": "normalized BRET, CBH-002 + GSK3326595 (Figure S6C)", "setting": "[1]; uM = -1.51", "value": "3.295 and 4.174 and 4.336"},
      {"measurement": "normalized BRET, CBH-002 + DMSO (Figure S6C)", "setting": "[1]; uM = -1.81", "value": "79.9418 and 55.2096 and 56.8522"},
      {"measurement": "normalized BRET, CBH-002 + GSK3326595 (Figure S6C)", "setting": "[1]; uM = -1.81", "value": "1.59 and 1.874 and 2.064"},
      {"measurement": "normalized BRET, CBH-002 + DMSO (Figure S6C)", "setting": "[1]; uM = -2.11", "value": "57.6271 and 32.8998 and 32.0743"},
      {"measurement": "normalized BRET, CBH-002 + GSK3326595 (Figure S6C)", "setting": "[1]; uM = -2.11", "value": "0.7121 and 0.8016 and 0.8965"},
      {"measurement": "normalized BRET, CBH-002 + DMSO (Figure S6C)", "setting": "[1]; uM = -2.41", "value": "31.5515 and 15.8288 and 15.9084"},
      {"measurement": "normalized BRET, CBH-002 + GSK3326595 (Figure S6C)", "setting": "[1]; uM = -2.41", "value": "0.2206 and 0.2381 and 0.3149"},
      {"measurement": "normalized BRET, CBH-002 + GSK3326595 (Figure S6C)", "setting": "[1]; uM = -2.71", "value": 0},
      {"measurement": "Tracer association (Figure S3C)", "setting": "NLuc-PRMT5; Time (min) -27", "value": "84.20 and 89.90 and 88.10 and 83.20"},
      {"measurement": "Tracer association (Figure S3C)", "setting": "NLuc-PRMT5; Time (min) -30", "value": "82.70 and 89.80 and 85.50 and 82.10"},
      {"measurement": "Tracer association (Figure S3C)", "setting": "NLuc-PRMT5; Time (min) -33", "value": "82.30 and 86.20 and 84.70 and 81.40"},
      {"measurement": "Tracer association (Figure S3C)", "setting": "NLuc-PRMT5; Time (min) -36", "value": "79.10 and 84.40 and 82.30 and 79.90"},
      {"measurement": "Tracer association (Figure S3C)", "setting": "NLuc-PRMT5; Time (min) -39", "value": "78.00 and 83.20 and 80.40 and 77.80"},
      {"measurement": "Tracer association (Figure S3C)", "setting": "NLuc-PRMT5; Time (min) -42", "value": "74.70 and 81.80 and 78.20 and 76.90"},
      {"measurement": "Tracer association (Figure S3C)", "setting": "NLuc-PRMT5; Time (min) -45", "value": "72.40 and 79.70 and 77.50 and 73.60"},
      {"measurement": "Tracer association (Figure S3C)", "setting": "NLuc-PRMT5; Time (min) -48", "value": "71.50 and 77.50 and 73.90 and 72.30"},
      {"measurement": "Tracer association (Figure S3C)", "setting": "NLuc-PRMT5; Time (min) -51", "value": "70.80 and 74.30 and 71.70 and 69.80"},
      {"measurement": "Tracer association (Figure S3C)", "setting": "NLuc-PRMT5; Time (min) -54", "value": "67.60 and 72.60 and 69.10 and 66.30"},
      {"measurement": "Tracer association (Figure S3C)", "setting": "NLuc-PRMT5; Time (min) -57", "value": "64.20 and 69.60 and 66.90 and 64.40"},
      {"measurement": "Tracer association (Figure S3C)", "setting": "NLuc-PRMT5; Time (min) -60", "value": "62.40 and 67.20 and 64.20 and 62.00"},
      {"measurement": "Tracer association (Figure S3C)", "setting": "NLuc-PRMT5; Time (min) -63", "value": "58.70 and 64.40 and 60.70 and 59.40"},
      {"measurement": "Tracer association (Figure S3C)", "setting": "NLuc-PRMT5; Time (min) -66", "value": "56.10 and 60.10 and 57.50"},
      {"measurement": "Tracer association (Figure S3C)", "setting": "NLuc-PRMT5; Time (min) -69", "value": "53.40 and 56.10 and 54.60 and 53.80"},
      {"measurement": "Tracer association (Figure S3C)", "setting": "NLuc-PRMT5; Time (min) -72", "value": "50.10 and 53.80 and 51.80"},
      {"measurement": "Tracer association (Figure S3C)", "setting": "NLuc-PRMT5; Time (min) -75", "value": "46.70 and 49.90 and 47.90 and 46.40"},
      {"measurement": "Tracer association (Figure S3C)", "setting": "NLuc-PRMT5; Time (min) -78", "value": "43.20 and 46.00 and 44.30 and 42.50"},
      {"measurement": "Tracer association (Figure S3C)", "setting": "NLuc-PRMT5; Time (min) -81", "value": "39.30 and 42.30 and 40.80 and 39.10"},
      {"measurement": "Tracer association (Figure S3C)", "setting": "NLuc-PRMT5; Time (min) -84", "value": "36.10 and 38.40 and 35.80"},
      {"measurement": "Tracer association (Figure S3C)", "setting": "NLuc-PRMT5; Time (min) -87", "value": "31.70 and 33.50 and 32.20 and 31.50"},
      {"measurement": "Tracer association (Figure S3C)", "setting": "NLuc-PRMT5; Time (min) -90", "value": "27.90 and 29.40 and 28.10 and 27.70"},
      {"measurement": "Tracer association (Figure S3C)", "setting": "NLuc-PRMT5; Time (min) -93", "value": "22.90 and 24.80 and 24.00 and 23.50"},
      {"measurement": "Tracer association (Figure S3C)", "setting": "NLuc-PRMT5; Time (min) -96", "value": "18.60 and 20.70 and 19.20"},
      {"measurement": "Tracer association (Figure S3C)", "setting": "NLuc-PRMT5; Time (min) -99", "value": "13.20 and 15.60 and 14.50"},
      {"measurement": "Tracer association (Figure S3C)", "setting": "NLuc-PRMT5; Time (min) -102", "value": "7.40 and 9.50 and 8.80 and 9.10"},
      {"measurement": "Time for BRET biosensor to reach equilibrium", "setting": "NLuc-PRMT5; live cells, room temperature, 30 nM CBH-002", "value": "~ 2 h"}
    ]}
  ]
}
